Patent publication US20200060276A1, “THIAZOLE COMPOUND AND HERBICIDE” (OAT Agrio Co., Ltd., priority 2017, published 2020)

Key:
Type in all cases: in vivo
[1] = tested on: Echinochloa crus-galli (L.) P. Beauv. var. formosensis Ohwi; test: Test for Herbicidal Effect in Flooding Treatment (#2), ECHDG at 2-2.5 leaf stage; conditions: for ECHDG (2-2.5L) #2 herbicidal effect (growth inhibition grade): flooding treatment at 2-2.5 leaf stage, dose 0.2 kg/ha, visual observation on day 21
In short: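 Flooded muddy soil was seeded with the weed, and at 2–2.5 leaf stage compound in acetone/Tween 80 water was dropped on the water surface at 0.2 kg/ha. Plants were kept in a glasshouse and scored visually on day 21 from 0 (<10% growth inhibition) to 5 (≥90% or complete withering).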

Cyperus microiria = test: Test for Herbicidal Effect in Flooding Treatment (#1), CYMIC; conditions: flooding treatment at seeding, dose 2 kg/ha, visual observation on day 21
In short: (§1)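 Flooded soil in cups was seeded 24 h after flooding, then treated with compound in acetone diluted with Tween 80-containing water, dropped onto the water surface at 2 kg/ha. After growth in a glasshouse, growth inhibition was scored visually on day 21 on a 0 (<10%) to 5 (≥90% or complete withering) scale.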

Scirpus juncoides = test: Test for Herbicidal Effect in Flooding Treatment (#1), SCIJU; conditions: flooding treatment at seeding, dose 2 kg/ha, visual observation on day 21
In short: as §1

Monochoria vaginalis = test: Test for Herbicidal Effect in Flooding Treatment (#1), MONVA; conditions: flooding treatment at seeding, dose 2 kg/ha, visual observation on day 21
In short: as §1

[2] = tested on: Echinochloa crus-galli (L.) P. Beauv. var. formosensis Ohwi; test: Test for Herbicidal Effect in Flooding Treatment (#1), ECHDG; conditions: flooding treatment at seeding, dose 2 kg/ha, visual observation on day 21
In short: as §1

| Compound | ECHDG (2-2.5L) #2 herbicidal effect (growth inhibition grade) [1] | CYMIC #1 herbicidal effect (growth inhibition grade) (Cyperus microiria) | SCIJU #1 herbicidal effect (growth inhibition grade) (Scirpus juncoides) | MONVA #1 herbicidal effect (growth inhibition grade) (Monochoria vaginalis) | ECHDG #1 herbicidal effect (growth inhibition grade) [2] | inhibition at 200 g/ha ([1]; Echinochloa crus-galli, 504 h, flooding treatment (#2), ECHDG at 2-2.5 leaf stage, dose of 0.2 kg/ha, day 21, visual observation, read-out: growth inhibition effect) |
| --- | --- | --- | --- | --- | --- | --- |
| CCOc1ccc(CS(=O)(=O)c2ncc(Cl)s2)c(Cl)c1Cl [Compound 1C-100] | 5 (Growth inhibition effect is equal to or greater than 90%, or complete withering is achieved) | 5 (Growth inhibition effect is equal to or greater than 90%, or complete withering is achieved) | 5 (Growth inhibition effect is equal to or greater than 90%, or complete withering is achieved) | 5 (Growth inhibition effect is equal to or greater than 90%, or complete withering is achieved) | 5 (Growth inhibition effect is equal to or greater than 90%, or complete withering is achieved) | – |
| COCOc1cc(Cl)c(CS(=O)(=O)c2ncc(Cl)s2)c(Cl)c1 [Compound 1C-119] | 4 (Growth inhibition effect is equal to or greater than 70%, and less than 90%) | 5 (Growth inhibition effect is equal to or greater than 90%, or complete withering is achieved) | 5 (Growth inhibition effect is equal to or greater than 90%, or complete withering is achieved) | 5 (Growth inhibition effect is equal to or greater than 90%, or complete withering is achieved) | 5 (Growth inhibition effect is equal to or greater than 90%, or complete withering is achieved) | – |
| CCOc1c(F)cc(F)cc1CS(=O)(=O)c1ncc(Cl)s1 [Compound 1C-21] | 5 (Growth inhibition effect is equal to or greater than 90%, or complete withering is achieved) | 5 (Growth inhibition effect is equal to or greater than 90%, or complete withering is achieved) | 5 (Growth inhibition effect is equal to or greater than 90%, or complete withering is achieved) | 5 (Growth inhibition effect is equal to or greater than 90%, or complete withering is achieved) | 5 (Growth inhibition effect is equal to or greater than 90%, or complete withering is achieved) | ≥ 90% |
| CCOc1c(Cl)cc(Cl)cc1CS(=O)(=O)c1ncc(Cl)s1 [Compound 1C-23] | 3 (Growth inhibition effect equal to or greater than 50%, and less than 70%) | 5 (Growth inhibition effect is equal to or greater than 90%, or complete withering is achieved) | 5 (Growth inhibition effect is equal to or greater than 90%, or complete withering is achieved) | 5 (Growth inhibition effect is equal to or greater than 90%, or complete withering is achieved) | 5 (Growth inhibition effect is equal to or greater than 90%, or complete withering is achieved) | – |
| CCOc1ccc(CS(=O)(=O)c2ncc(Cl)s2)c(C)c1 [Compound 1C-93] | 5 (Growth inhibition effect is equal to or greater than 90%, or complete withering is achieved) | 5 (Growth inhibition effect is equal to or greater than 90%, or complete withering is achieved) | 5 (Growth inhibition effect is equal to or greater than 90%, or complete withering is achieved) | 5 (Growth inhibition effect is equal to or greater than 90%, or complete withering is achieved) | 5 (Growth inhibition effect is equal to or greater than 90%, or complete withering is achieved) | – |
| CC(C)Oc1ccccc1CS(=O)(=O)c1ncc(Cl)s1 [Compound 1C-36] | 4 (Growth inhibition effect is equal to or greater than 70%, and less than 90%) | 5 (Growth inhibition effect is equal to or greater than 90%, or complete withering is achieved) | 5 (Growth inhibition effect is equal to or greater than 90%, or complete withering is achieved) | 5 (Growth inhibition effect is equal to or greater than 90%, or complete withering is achieved) | 5 (Growth inhibition effect is equal to or greater than 90%, or complete withering is achieved) | – |
| CCOc1c(C)cccc1CS(=O)(=O)c1ncc(Cl)s1 [Compound 1C-11] | 5 (Growth inhibition effect is equal to or greater than 90%, or complete withering is achieved) | 5 (Growth inhibition effect is equal to or greater than 90%, or complete withering is achieved) | 5 (Growth inhibition effect is equal to or greater than 90%, or complete withering is achieved) | 5 (Growth inhibition effect is equal to or greater than 90%, or complete withering is achieved) | 5 (Growth inhibition effect is equal to or greater than 90%, or complete withering is achieved) | – |
| CCOc1cccc(CS(=O)(=O)c2ncc(Cl)s2)c1F [Compound 1C-75] | 4 (Growth inhibition effect is equal to or greater than 70%, and less than 90%) | 5 (Growth inhibition effect is equal to or greater than 90%, or complete withering is achieved) | 5 (Growth inhibition effect is equal to or greater than 90%, or complete withering is achieved) | 5 (Growth inhibition effect is equal to or greater than 90%, or complete withering is achieved) | 5 (Growth inhibition effect is equal to or greater than 90%, or complete withering is achieved) | – |
| CCOc1cc(Cl)cc(CS(=O)(=O)c2ncc(Cl)s2)c1 [Compound 1C-78] | 5 (Growth inhibition effect is equal to or greater than 90%, or complete withering is achieved) | 5 (Growth inhibition effect is equal to or greater than 90%, or complete withering is achieved) | 5 (Growth inhibition effect is equal to or greater than 90%, or complete withering is achieved) | 5 (Growth inhibition effect is equal to or greater than 90%, or complete withering is achieved) | 5 (Growth inhibition effect is equal to or greater than 90%, or complete withering is achieved) | – |
| CCOc1c(C)cc(Cl)cc1CS(=O)(=O)c1ncc(Cl)s1 [Compound 1C-26] | 5 (Growth inhibition effect is equal to or greater than 90%, or complete withering is achieved) | 5 (Growth inhibition effect is equal to or greater than 90%, or complete withering is achieved) | 5 (Growth inhibition effect is equal to or greater than 90%, or complete withering is achieved) | 5 (Growth inhibition effect is equal to or greater than 90%, or complete withering is achieved) | 5 (Growth inhibition effect is equal to or greater than 90%, or complete withering is achieved) | – |
| CCCOc1cc(Cl)c(CS(=O)(=O)c2ncc(Cl)s2)c(Cl)c1 [Compound 1C-110] | 5 (Growth inhibition effect is equal to or greater than 90%, or complete withering is achieved) | 5 (Growth inhibition effect is equal to or greater than 90%, or complete withering is achieved) | 5 (Growth inhibition effect is equal to or greater than 90%, or complete withering is achieved) | 5 (Growth inhibition effect is equal to or greater than 90%, or complete withering is achieved) | 5 (Growth inhibition effect is equal to or greater than 90%, or complete withering is achieved) | – |
| CCOc1ccccc1CS(=O)(=O)c1ncc(Cl)s1 [Compound 1C-8] | 5 (Growth inhibition effect is equal to or greater than 90%, or complete withering is achieved) | 5 (Growth inhibition effect is equal to or greater than 90%, or complete withering is achieved) | 5 (Growth inhibition effect is equal to or greater than 90%, or complete withering is achieved) | 5 (Growth inhibition effect is equal to or greater than 90%, or complete withering is achieved) | 5 (Growth inhibition effect is equal to or greater than 90%, or complete withering is achieved) | – |
| CCOc1ccc(CS(=O)(=O)c2ncc(Cl)s2)c(F)c1F [Compound 1C-99] | 5 (Growth inhibition effect is equal to or greater than 90%, or complete withering is achieved) | 5 (Growth inhibition effect is equal to or greater than 90%, or complete withering is achieved) | 5 (Growth inhibition effect is equal to or greater than 90%, or complete withering is achieved) | 5 (Growth inhibition effect is equal to or greater than 90%, or complete withering is achieved) | 5 (Growth inhibition effect is equal to or greater than 90%, or complete withering is achieved) | – |
